From US20080085833A1, “Use Of Glycerol As An Anti-Moss And/Or Anti-Lichen Agent” (priority 2004, published 2008)

System: mosses and lichens
Test: Anti-moss and anti-lichen effect of glycerol-based compositions, overall observation on mosses and lichens
Type: in vivo
Text: An anti-moss and/or anti-lichen composition is first prepared by solubilizing the required amount of glycerol in water at room temperature, in an appropriate vessel, to give a solution containing 99%, 65% or 20% by weight of glycerol.
The anti-moss and/or anti-lichen composition is maintained at this same temperature in a vessel fitted with a nozzle to enable the product to be sprayed onto a vertical or horizontal surface.
A sufficient amount of anti-moss and/or anti-lichen composition containing 99%, 65% or 20% by weight of glycerol, with or without gluconic acid, is applied by the process of the invention to 3 different surfaces covered with crustaceous lichens, gelatinous lichens and mosses.
For the series of 3 treatments, visual observations were made periodically after treatment with the glycerol compositions described, and then at regular intervals for 3 weeks.

Which results are given for OCC(O)CO [Pure glycerol, glycerol]?
anti-moss and/or anti-lichen activity on dilution (glycerol diluted to 20%): without losing its anti-moss and/or anti-lichen activity; efficacy for removing mosses and/or lichens (pure glycerol): effective
